Assay results reported in patent US9962334B2, “Ophthalmic device having therapeutic agent delivery capability and method of forming same” (Novartis AG, priority 2008, dated 2018).
Marks after values point to notes of the source that are not given here.

Legend:
[1] = cited from earlier work
[2] = cited from earlier work; remark: listed apart in the source
[3] = tested on: LEC migration and proliferation; assay: In vitro inhibition of LEC migration and proliferation; type: cell-based; settings: in vitro studies

Structure (SMILES) | Exp. Log P/Hydrophobicity [1] | log P (PC log P) [1] | other results
NC(=O)Cc1cccc(C(=O)c2ccccc2)c1N [Nepafenac] | 2.11* | 2.1 | –
O=C(O)Cc1ccccc1Nc1c(Cl)cccc1Cl [Diclofenac] | – | – | soluble in water up to [2]: up to 50 mg/mL
Nc1c(CC(=O)O)cccc1C(=O)c1ccc(Br)cc1 [Bromfenac] | – | – | Water Solubility [2]: 0.0126 mg/mL
O=C(c1ccccc1)c1ccc2n1CCC2C(=O)O (stereo not drawn) [Ketorolac] | 2.1 | – | Water Solubility [2]: 25 mg/mL
O=C1O[C@H]([C@@H](O)CO)C(O)=C1O [Ascorbic Acid] | −0.5 | – | –
COc1cc2c(c(OC)c1OC)-c1ccc(OC)c(=O)cc1[C@@H](NC(C)=O)CC2 [Colchicine] | 1.3 | 1.3 | concentration as low as which LEC migration and proliferation was inhibited [3]: 0.0005 mg/mL
O=C(O)Cc1ccccc1Nc1c(Cl)cccc1Cl [Diclofenac Sodium] | – | 1.1 | –
CO[C@@]12[C@H](COC(N)=O)C3=C(C(=O)C(C)=C(N)C3=O)N1C[C@@H]1N[C@@H]12 [Mitomycin-C] | – | – | concentration as low as which LEC migration and proliferation was inhibited [3]: 0.0005 mg/mL
